Assay results as given in article PMC5841658, “Anti-cancer characteristics and ototoxicity of platinum(II) amine complexes with only one leaving ligand” (PLoS ONE, 2018).
Values joined by “and” are separate entries in the source; they are usually repeats but may differ in a detail not shown here. Equal values may be shown once.

What was measured:
[1] = system: A549 lung cancer cell line; test: MTT cellular viability assay, A549; format: cell-based; conditions: 72 hours, ± standard deviation
Protocol: (§1) Cell lines were obtained from American Type Culture Collection (ATCC, Manassas, VA). […] Caco-2 (ATCC: HTB-37) colorectal cancer was grown in EMEM with 20% FBS and 1% penicillin/streptomycin. All cell lines were incubated at 37°C in 5% CO2 with passaging every 4–7 days. Cell culture media and supplements were obtained from ATCC, Atlanta Biologicals (Flowery Branch, GA), Mediatech (Tewksbury, MA), Fisher Scientific (Waltham, MA), Gibco (Gaithersburg, MD) and Sigma-Aldrich.
(§2) The MTT (3-(4,5-dimethylthiazol-2-yl)-2,5-diphenyltetrazolium bromide) cellular viability assay was performed in all three cancer cell lines and the non-cancer cell line. Following a protocol adapted from, cells were seeded at 5,000 cells per well in 96-well plates and incubated at 37°C in 5% CO2 in F-12K Medium or EMEM with FBS supplementation and 1% penicillin/streptomycin for 24 hours. Then, wells were treated in replicates of six according to a concentration series (500, 50, 5, 0.5, 0.05 μM) of specific platinum complexes for 72 hours. A negative control (media only), positive control (Triton X-100) and series of blanks were simultaneously performed. The MTT assay was run for 2 hours, then well contents were rapidly evacuated out and all wells were treated with MTT solubilization solution [10% Triton X-100 in acidic (0.1N HCl) isopropanol] for 15 minutes before the plates were read using a BioTek Synergy HT microplate plate reader (570 nm and 690 nm absorbance wavelengths). Reagents, cell culture media and supplements were obtained from ATCC, Atlanta Biologicals, Mediatech, Fisher Scientific, Gibco and Sigma-Aldrich.
(§3) GraphPad Prism v6 (La Jolla, CA) was used for all statistical analysis. Nuclear fraction platinum uptake as a total percent of combined nuclear and cytosolic uptake was analyzed using a one-way ANOVA (Brown-Forsyth test; p ≤ 0.05). IC50 values were calculated in Prism using the sigmoidal, 4PL, x is log(concentration) analysis feature or were calculated from Prism derived values using the equation y = mx + b. MTT assay standard deviation values were calculated using ED50plus v1.0 online software. AEP threshold data were analyzed by two-way ANOVA (Dunnett’s multiple comparisons test; p ≤ 0.05) and hair cell quantification data by two-way ANOVA (Tukey’s multiple comparisons test; p ≤ 0.05). AEP temporary threshold shifts (TTS) were calculated by subtracting the mean vehicle threshold for each frequency from each treatment threshold. TTS data were averaged across frequencies for each treatment and were analyzed by one-way ANOVA (Tukey’s multiple comparisons test; p ≤ 0.05).

[2] = system: IMR-90 lung fibroblast control cell line; test: MTT cellular viability assay, IMR90; format: cell-based; conditions: IMR90 (fibroblast, non-cancer), 72 hours, ± standard deviation
Protocol: as §1, §2, §3

[3] = system: zebrafish hearing thresholds; test: Auditory evoked potential (AEP) testing in zebrafish inner ear model; format: in vivo, Danio rerio; conditions: 25 mg/kg i.p.; for AEP hearing threshold, significance of pairwise comparison against vehicle / AEP hearing threshold, significance of pairwise comparison against cisplatin: 48 h
Protocol: (§4) Zebrafish (Danio rerio) were purchased from a commercial supplier (Segrest Farms, Gibsonton, FL) and maintained in the animal facility of Western Kentucky University according to a protocol approved by the Institutional Animal Care and Use Committee. All zebrafish used in this study were a mix of male and female adult animals at least 6 months of age and were maintained according to standard methods.
(§5) After injection, fish were returned to holding tanks for either 24 or 48 hours and then subjected to hearing tests followed by hair cell quantification analysis.
Auditory evoked potential (AEP) testing was performed on individual fish according to standard protocols. […] After harness placement was complete, three 27 gauge stainless steel electrodes (Rochester Electro-Medical, Inc., Lutz, FL) were inserted approximately 2 mm subdermally to record AEPs. A reference electrode was inserted into the medial dorsal surface of the head, a recording electrode directly over the brainstem and a ground electrode in the tail musculature. Sound stimuli (tone pips) were presented to each fish at 8 frequencies (100, 250, 400, 600, 800, 1000, 1500 and 3000 Hz) and AEP waveforms were collected using a TDT System III physiology apparatus (Tucker-Davis Technologies Inc., Alachua, FL) running SigGen and BioSig software. Auditory stimuli were passed through a P1000 power amplifier (Hafler, Port Coquitlam, BC) and presented with a University Sound UW-30 underwater speaker (Electro-Voice, Fairport, NY). Sound pressure levels were confirmed using a Type 10CT hydrophone (G.R.A.S., Holte, Denmark) placed adjacent to the mesh harness. Auditory thresholds were determined in 5 dB increments by visual inspection of AEP waveforms.
as §3

[4] = system: U-138 MG (HTB-16) glioblastoma cancer cell line; test: MTT cellular viability assay, HTB16; format: cell-based; conditions: HTB16 (glioma), 72 hours, ± standard deviation
Protocol: as §1, §2, §3

[5] = system: zebrafish saccule hair cells; test: Hair cell quantification, saccule; format: in vivo, Danio rerio; conditions: 25 mg/kg i.p., 48 hours; for effect on hair cell density in four regions of the saccule compared to vehicle: 5, 25, 50, 75% regions
Protocol: as §4, §5
Hair cell counts were performed from specific regions of the zebrafish saccule and utricle using established procedures. […] Prior to dissection, heads were rinsed three times for 10 minutes each at room temperature in phosphate buffer (pH 7.4, LabChem, Pittsburgh, PA) and the inner ear epithelia (saccule and utricle) were then carefully dissected out and trimmed. […] Tissue samples were then placed on glass slides and nuclei were labelled with Prolong Gold antifade reagent (4’,6-diamidino-2-phenylindole [DAPI], Life Technologies, Carlsbad, CA) and a cover-slip was placed over the samples for microscopy.
Saccule and utricle samples were viewed through the FITC filter of a Zeiss Axioplan2 epifluorescence microscope (Carl Zeiss, Jena, Germany) at 20X magnification and were then photographed using an AxioCam MRm camera. Cell counts were made from four regions of the saccule (5%, 25%, 50%, 75%) along the rostral-caudal length of the organ by placing a 50 μm x 50 μm box at each location and using the microscope cell counter feature. In the utricular samples, cell counts were made from three equidistant 50 μm x 50 μm boxes in both the extrastriolar and striolar regions.
as §3

[6] = system: Caco-2 colorectal cancer cell line; test: MTT cellular viability assay, Caco2; format: cell-based; conditions: 72 hours, ± standard deviation
Protocol: as §1, §2, §3

5'-GMP = test: Kinetic 5'-GMP assay (1H NMR, rate of reaction of platinum complex with 5'-GMP); format: biochemical; conditions: D2O, pH 7, 25°C; for Rate constant for the reaction of 5'-GMP with the platinum(II) complex: excess platinum, fitted first order in each reactant
Protocol: The reaction of each platinum compound with 5'-GMP (Acros) was monitored using ^1H NMR spectroscopy to observe the disappearance of the H8 signal of the unreacted 5'-GMP at ≈8 ppm and the appearance of a product signal ≈0.5–1.0 ppm downfield of the unreacted 5'-GMP. The reaction was conducted with excess platinum compound present in each case. A 10 mM solution of 5'-GMP and a 10–20 mM solution of the platinum(II) compound were prepared separately in D2O. The pH (uncorrected for the effects of deuterium) of each solution was adjusted to 7, and the samples were equilibrated to 25°C in a water bath. Aliquots of the two solutions were combined and placed in an NMR tube; typically, the final concentrations of platinum was 5–18 mM and the concentration of 5'-GMP was 1 mM (except for the [Pt(dien)Cl]^+ reaction, where it was 0.5 mM). Samples were maintained at 25°C throughout the NMR experiment. The H8 resonances were integrated and the data was fitted to an equation that was first order in each reactant using DynaFit to determine rate constants. At least two runs were conducted for each platinum compound using fresh samples.

## N.N.[Cl][Pt][Cl] [Cisplatin, cisplatin]
[1]
  IC50: 9.79 ± 0.63 µM
[2]
  IC50: 0.53 ± 0.94 µM
[3]; 100 Hz
  AEP hearing threshold, significance of pairwise comparison against vehicle: ns (ns, p > 0.05)
[3]; 250 Hz
  AEP hearing threshold, significance of pairwise comparison against vehicle: ns (ns, p > 0.05)
[3]; 400 Hz
  AEP hearing threshold, significance of pairwise comparison against vehicle: **** (**** p ≤ 0.0001)
[3]; 600 Hz
  AEP hearing threshold, significance of pairwise comparison against vehicle: *** (*** p ≤ 0.001)
[3]; 800 Hz
  AEP hearing threshold, significance of pairwise comparison against vehicle: *** (*** p ≤ 0.001)
[3]; 1000 Hz
  AEP hearing threshold, significance of pairwise comparison against vehicle: **** (**** p ≤ 0.0001)
[3]; 1500 Hz
  AEP hearing threshold, significance of pairwise comparison against vehicle: **** (**** p ≤ 0.0001)
[3]; 3000 Hz
  AEP hearing threshold, significance of pairwise comparison against vehicle: ns (ns, p > 0.05)
[4]
  IC50: 3.11 ± 0.06 µM
[5]; 5% location along rostral-caudal axis
  saccule hair cell density, % of control: 69.5 % of control
[5]
  effect on hair cell density in four regions of the saccule compared to vehicle: hair cell density reduction in the 5, 25 and 50% regions
[5]; 25% location along rostral-caudal axis
  saccule hair cell density, % of control: 41.4 % of control
[5]; 50% location along rostral-caudal axis
  saccule hair cell density, % of control: 47.7 % of control

## [NH3+][Pt-2]([NH3+])([Cl])[n+]1ccccc1 (centres unmarked) [Pyriplatin, pyriplatin]
[6]
  IC50: 20.9 ± 0.69 µM
[1]
  IC50: 89.28 ± 0.46 µM
[2]
  IC50: 16.1 ± 1.13 µM
[3]; 48 hours, vehicle threshold subtracted
  mean (± S.E.) temporary threshold shift (TTS), averaged across frequencies: 6 dB and 6.2 ± 2.1 dB
[3]; 100 Hz
  AEP hearing threshold, significance of pairwise comparison against cisplatin: ns (ns, p > 0.05)
  AEP hearing threshold, significance of pairwise comparison against vehicle: * (* p ≤ 0.05)
[3]; 250 Hz
  AEP hearing threshold, significance of pairwise comparison against cisplatin: ns (ns, p > 0.05)
  AEP hearing threshold, significance of pairwise comparison against vehicle: ns (ns, p > 0.05)
[3]; 400 Hz
  AEP hearing threshold, significance of pairwise comparison against cisplatin: ns (ns, p > 0.05)
  AEP hearing threshold, significance of pairwise comparison against vehicle: ns (ns, p > 0.05)
[3]; 600 Hz
  AEP hearing threshold, significance of pairwise comparison against cisplatin: ns (ns, p > 0.05)
  AEP hearing threshold, significance of pairwise comparison against vehicle: ns (ns, p > 0.05)
[3]; 800 Hz
  AEP hearing threshold, significance of pairwise comparison against cisplatin: ns (ns, p > 0.05)
  AEP hearing threshold, significance of pairwise comparison against vehicle: ns (ns, p > 0.05)
[3]; 1000 Hz
  AEP hearing threshold, significance of pairwise comparison against cisplatin: ns (ns, p > 0.05)
  AEP hearing threshold, significance of pairwise comparison against vehicle: ns (ns, p > 0.05)
[3]; 1500 Hz
  AEP hearing threshold, significance of pairwise comparison against cisplatin: * (* p ≤ 0.05)
  AEP hearing threshold, significance of pairwise comparison against vehicle: ns (ns, p > 0.05)
[3]; 3000 Hz
  AEP hearing threshold, significance of pairwise comparison against cisplatin: ns (ns, p > 0.05)
  AEP hearing threshold, significance of pairwise comparison against vehicle: ns (ns, p > 0.05)
[4]
  IC50: 66.3 ± 0.74 µM
[5]
  effect on hair cell density in four regions of the saccule compared to vehicle: no hair cell reduction
5'-GMP
  Relative rate (rate constant divided by the rate constant for [Pt(dien)Cl]^+): 0.073
  Rate constant for the reaction of 5'-GMP with the platinum(II) complex: 2.9 (+/- 0.7) x 10^−2 M^-1s^-1
5'-GMP; listed as pyriplatin
  Rate constant for the reaction of 5'-GMP with the platinum(II) complex: 2.9 ± 0.7 x 10^−2 M^-1s^-1

## CC[N+]1(CC)CC[NH+]2CC[NH][Pt-2]21[Cl] (centres unmarked) [[Pt(Et2dien)Cl]^+, Pt(N,N-diethyldiethylenetriamine)Cl]
[6]
  IC50: 72.5 ± 3.37 µM
[1]
  IC50: 67.3 ± 0.36 µM
[2]
  IC50: 7.13 ± 0.98 µM
[4]
  IC50: 48 ± 11.8 µM
